target: T1, mutant G12C K-RAS (Homo sapiens, UniProt P01116, G12C); test: covalent adduct formation (CAF) with mutant G12C K-RAS; format: binding; set-up: covalent adduct formation (CAF): unit not given here; conditions: Table 1; 10 micromolar, after 60 minutes
T1 construct: made in house; host or cells: E. coli BL21
Experimental: Embodiments disclosed herein are further illustrated by the following examples in Tables 1-4 and the Examples hereinbelow. The Tables indicate the compound number, structure, the observed mass spectral molecular weight peak, and covalent adduct formation (CAF) with a mutant G12C K-RAS after 60 minutes at a concentration of 10 micromolar.

% CAF(60 min) [%]	SMILES
42.5	C=CC(=O)N1CC2(CCN(c3nc(=O)n4c5c(c(-c6c(O)cccc6F)c(Cl)cc35)OCC4)CC2)C1 [Example 2, 7-(2-acryloyl-2,7-diazaspiro[3.5]nonan-7-yl)-9-chloro-10-(2-fluoro-6-hydroxyphenyl)-2H-[1,4]oxazino[2,3,4-ij]quinazolin-5(3H)-one]
89	C=CC(=O)N1CCN(c2nc(=O)n3c4c(c(-c5c(O)cccc5F)c(Cl)cc24)OCC3)CC1 [Example 1, 7-(4-acryloylpiperazin-1-yl)-9-chloro-10-(2-fluoro-6-hydroxyphenyl)-2H-[1,4]oxazino[2,3,4-ij]quinazolin-5(3H)-one]

same assay, conditions: Table 4; 10 micromolar, after 60 minutes

% CAF(60 min) [%]	SMILES
0	C=CC(=O)N1C[C@H](C)N(c2c(C#N)c(=O)n3c4c(c(-c5ccc(F)cc5F)ccc24)OC[C@H]3CN(C)C)C[C@H]1C [Example 52, (R)-7-((2S,5R)-4-acryloyl-2,5-dimethylpiperazin-1-yl)-10-(2,4-difluorophenyl)-3-((dimethylamino)methyl)-5-oxo-3,5-dihydro-2H-[1,4]oxazino[2,3,4-ij]quinoline-6-carbonitrile]
0	C=CC(=O)N1C[C@H](C)N(c2c(C#N)c(=O)n3c4c(c(-c5ccc(F)cc5F)ccc24)OC[C@@H]3CN(C)C)C[C@H]1C [Example 51, (S)-7-((2S,5R)-4-acryloyl-2,5-dimethylpiperazin-1-yl)-10-(2,4-difluorophenyl)-3-((dimethylamino)methyl)-5-oxo-3,5-dihydro-2H-[1,4]oxazino[2,3,4-ij]quinoline-6-carbonitrile]

same assay, conditions: Table 6; 10 uM, 1 h

% CAF @ 10 uM, 1 h [%]	SMILES
0	C=CC(=O)N1C[C@H](C)N(c2nc(=O)n3c4c(c(-c5c(F)ccc6c5C(=O)NC6)ccc24)OCC3)C[C@H]1C [Example 231, 7-((2S,5R)-4-acryloyl-2,5-dimethylpiperazin-1-yl)-10-(5-fluoro-3-oxoisoindolin-4-yl)-2,3-dihydro-5H-[1,4]oxazino[2,3,4-ij]quinazolin-5-one]
0	C=CC(=O)N1C[C@H](C)N(c2nc(=O)n3c4c(c(-c5c(O)cccc5F)c(Cl)cc24)OC[C@@H]3CN2CCC(F)(F)C2)C[C@H]1C [Example 220, (3S,10R)-7-((2S,5R)-4-acryloyl-2,5-dimethylpiperazin-1-yl)-9-chloro-3-((3,3-difluoropyrrolidin-1-yl)methyl)-10-(2-fluoro-6-hydroxyphenyl)-2,3-dihydro-5H-[1,4]oxazino[2,3,4-ij]quinazolin-5-one]
0	C=CC(=O)N1C[C@H](C)N(c2nc(=O)n3c4c(c(-c5c(O)cccc5F)c(Cl)cc24)OC[C@H]3Cn2cccn2)C[C@H]1C (atropisomer, axis not shown) [Example 245, (3R,10R)-3-((1H-pyrazol-1-yl)methyl)-7-((2S,5R)-4-acryloyl-2,5-dimethylpiperazin-1-yl)-9-chloro-10-(2-fluoro-6-hydroxyphen-yl)-2H-[1,4]oxazino-[2,3,4-ij]quinazolin-5(3H)-one]
0	C=CC(=O)N1C[C@H](C)N(c2nc(=O)n3c4c(c(-c5c(F)ccc6[nH]nnc56)ccc24)OCC3)C[C@H]1C [Example 223, 7-((2S,5R)-4-acryloyl-2,5-dimethylpiperazin-1-yl)-10-(5-fluoro-1H-benzo[d][1,2,3]triazol-4-yl)-2,3-dihydro-5H-[1,4]oxazino[2,3,4-ij]quinazolin-5-one]
0	C=CC(=O)N1C[C@H](C)N(c2nc(=O)n3c4c(c(-c5c(F)cccc5C(F)F)ccc24)OCC3)C[C@H]1C [Example 200, 7-((2S,5R)-4-acryloyl-2,5-dimethylpiperazin-1-yl)-10-(2-(difluoromethyl)-6-fluorophenyl)-2,3-dihydro-5H-[1,4]oxazino[2,3,4-ij]quinazolin-5-one]
0	C=CC(=O)N1C[C@H](C)N(c2nc(=O)n3c4c(c(-c5c(F)ccc6cc[nH]c(=O)c56)ccc24)OCC3)C[C@H]1C [Example 224, 7-((2S,5R)-4-acryloyl-2,5-dimethylpiperazin-1-yl)-10-(7-fluoro-1-oxo-1,2-dihydroisoquinolin-8-yl)-2,3-dihydro-5H-[1,4]oxazino[2,3,4-ij]quinazolin-5-one]
0	C=CC(=O)N1C[C@H](C)N(c2nc(=O)n3c4c(c(-c5ccccc5C(F)(F)F)c(Cl)cc24)OCC3)C[C@H]1C [Example 197, 7-((2S,5R)-4-acryloyl-2,5-dimethylpiperazin-1-yl)-9-chloro-10-(2-(trifluoromethyl)phenyl)-2,3-dihydro-5H-[1,4]oxazino[2,3,4-ij]quinazolin-5-one]
0	C=CC(=O)N1C[C@H](C)N(c2nc(=O)n3c4c(c(-c5c(O)cccc5F)c(Cl)cc24)OC[C@@H]3CN2CCOCC2)C[C@H]1C (atropisomer, axis not shown) [Example 208, (3R,10R)-7-((2S,5R)-4-acryloyl-2,5-dimethyl-piperazin-1-yl)-9-chloro-10-(2-fluoro-6-hydroxyphenyl)-3-(morpholinomethyl)-2,3-dihydro-5H-[1,4]-oxazino[2,3,4-ij]-quinazolin-5-one]

same assay, conditions: Table 7; 10 micromolar, after 60 minutes

covalent adduct formation (CAF)	SMILES
94.5	C=CC(=O)N1CCN(c2nc(=O)n3c4c(c(-c5ccc(F)cc5F)c(Cl)cc24)SC[C@H]3COC)[C@@H](C)C1 [Example 130, (3R)-7-((S)-4-acryloyl-2-methylpiperazin-1-yl)-9-chloro-10-(2,4-difluorophenyl)-3-(methoxymethyl)-2,3-dihydro-5H-[1,4]thiazino[2,3,4-ij]quinazolin-5-one]
94.8	C=CC(=O)N1CCN(c2nc(=O)n3c4c(c(-c5c(F)cc(F)cc5F)c(Cl)cc24)SC[C@H]3CC2CCN(C)CC2)[C@@H](C)C1 [Example 344, (R)-7-((S)-4-acryloyl-2-methylpiperazin-1-yl)-9-chloro-3-((1-methylpiperidin-4-yl)-methyl)-10-(2,4,6-trifluorophenyl)-2H-[1,4]thiazino[2,3,4-ij]-quinazolin-5(3H)-one]
86.8	C=CC(=O)N1CCN(c2nc(=O)n3c4c(c(-c5c(F)cc(F)cc5F)c(Cl)cc24)SC[C@H]3COC)[C@@H](C)C1 [Example 137, (R)-7-((S)-4-acryloyl-2-methylpiperazin-1-yl)-9-chloro-3-(methoxymethyl)-10-(2,4,6-trifluorophenyl)-2,3-dihydro-5H-[1,4]thiazino[2,3,4-ij]quinazolin-5-one]
96.6	C=CC(=O)N1CCN(c2nc(=O)n3c4c(c(-c5c(F)cc(F)cc5F)c(Cl)cc24)SC[C@H]3CCCN2C[C@@H]3C[C@H]2CO3)[C@@H](C)C1 [Example 339, (R)-3-(3-((1S,4S)-2-oxa-5-azabicyclo-[2.2.1]heptan-5-yl)-propyl)-7-((S)-4-acryloyl-2-methyl-piperazin-1-yl)-9-chloro-10-(2,4,6-trifluorophenyl)-2H-[1,4]thiazino[2,3,4-ij]-quinazolin-5(3H)-one]
82.4	C=CC(=O)N1CCN(c2nc(=O)n3c4c(c(-c5ccc(F)cc5F)c(Cl)cc24)SC[C@H]3CC2CCN(C)CC2)[C@@H](C)C1 [Example 345, (3R)-7-((S)-4-acryloyl-2-methylpiperazin-1-yl)-9-chloro-10-(2,4-difluorophenyl)-3-((1-methylpiperidin-4-yl)-methyl)-2H-[1,4]-thiazino-[2,3,4-ij]-quinazolin-5(3H)-one]

Reference: patent US20230203063A1, “TRICYCLIC PYRIDONES AND PYRIMIDONES” (Erasca, Inc., priority 2019, published 2023)
